Measurements from ChEMBL document CHEMBL1127760, “Blood-brain penetration of 5-hydroxytryptamine derivatives” (Bioorg Med Chem Lett, 1994).
Calls of active or inactive are those of the source. The calls are words filed in the database; no cut-off is given here.

Tests used:
Mus musculus [1] = test: Locomotor activity of the mice was determined at a dose of 50 ng/Kg after 30-45 min of intracerebroventricular (icv) injection; Significantly reduced; format: functional, organism-based
Mus musculus [2] = test: Locomotor activity of the mice was determined at a dose of 50 ng/Kg after 45-60 min of intracerebroventricular (icv) injection; Significantly reduced; format: functional, organism-based

CC(=O)NCCc1c[nH]c2ccc(O)cc12
Activity (Mus musculus [1]): Active
Activity (Mus musculus [2]): Active

COc1ccc2[nH]cc(CCNC(C)=O)c2c1
Activity (Mus musculus [1]): Active
Activity (Mus musculus [2]): Active

CCCCCCCCCCCCCCCCOP(=O)(OCCOC1CC(O)C(O)C(CO)O1)Oc1ccc2[nH]cc(CCNC(C)=O)c2c1 (stereo unspecified)
Activity (Mus musculus [1]): Significantly reduced
Activity (Mus musculus [2]): Significantly reduced
